Data reported in patent US20190314312A1, “COMBINATION THERAPY TO INCREASE ENDOGENOUS NITRIC OXIDE (NO) SYNTHESIS” (Yeda Research and Development Co. Ltd., priority 2016, published 2019).
“Also recorded” adds a separate entry of the source.

Tests used:
Type in all cases: in vivo, mouse
C57BL/6J.OlaaHsd mice [1] = assay: DSS-induced colitis, treatment with arginine, citrulline, NaNO2, fisetin or citrulline plus fisetin
Procedure: Colitis was induced in Vav1^Cre:As1^f/f mice and CD11c^Cre:As1^f/f with 1.5% DSS and with 0.8% DSS in the Villin^Cre:As1^f/f (wt/vol), (Dextran Sodium Sulfate, MP Biomedicals; molecular weight 36,000-50,000 Da). The powder was dissolved in the drinking water for 6 days, followed by 5 days of supplementing regular water^20. Each group consisted of eight to ten, 8-10 weeks old, male mice. Experiments were repeated at least three times. “f/f”—flox/flox.
Colonoscopy was performed on days 7 and 11 of the experiment to monitor for severity of colitis. For the procedure, a high resolution mouse video endoscopic system was used, which consists of a miniature endoscope (scope 1.9 mm outer diameter), a xenon light source, a triple chip camera, and an air pump to achieve regulated inflation of the mouse bowel (Karl Storz, Tuttlingen, Germany). Mice were anesthetized by the administration of 4-5% of isoflurane in 100% oxygen at a rate of 0.2-0.5 L/min or by the administration of 100 mg/kg Ketamine/10 mg/kg Xylazine mixture IP, after which, the endoscope was introduced via the anus and the colon was carefully insufflated with an air pump before analysis of the colonic mucosa. The endoscopic procedure was viewed on a color monitor and digitally recorded on tape. Colitis was scored according to the Murine endoscopic index of colitis severity (MEICS), considering differences in the thickness of the bowel wall, changes in blood vessel integrity, mucosal surface, stool consistency or the presence of fibrin, scored each between 0 and 3. The cumulative score ranged from 0 (no signs of inflammation) to 15 (signs of severe inflammation)^21.
Mice were treated with 1% (wt/vol) DSS for 6 days, followed by administration of either arginine 1% (wt/vol) solution (Sigma-Aldrich, St. Louis, Mo., catalogue number A8094) in drinking water, citrulline 1% (wt/vol) (L-citrulline, Chem-Impex International), NaNO2 100 mg (Sigma-Aldrich, St. Louis, Mo., catalogue number S2252), or water as control for additional 6 days.
Fisetin was given by intraperitoneal (i.p.) injection (1 mg/animal) in 30 μL of DMSO twice weekly. The control group was injected with 30 μL of DMSO twice weekly. Each group consisted of ten, 8-weeks old, male mice. Experiments were repeated three times.
Histopathology. On the day of sacrifice, colons were removed and their length was measured. Colon was fixed in 2.5% PFA solution overnight at 4° C., then embedded in paraffin, sectioned and stained with H&E. Tissues were examined in a blinded manner by a pathologist and scored on a 0-4 scale based on the parameters of inflammation severity^20.

[2] = test system: CD45+ immune system cells; assay: FACS analysis of colon CD45+ immune system cells after colitis induction; details: fisetin vs control after colitis induction, FIGS. 14A-C
Procedure: Colon segment was flushed with cold PBS, longitudinally cut open and rinsed to remove residual luminal contents. Tissue was cut into 3- to 5-mm pieces and incubated in HBSS medium containing EDTA 0.5 M and Hepes 10 mM at 37° C. for 20 minutes, shaken at 180 rpm, to separate epithelial fraction. Supernatant was centrifuged at 4° C. at 500 g for 10 minutes. Recovered tissue was digested in HBSS medium with 2% fetal bovine serum (FBS), 0.05% collagenase II and 0.05% DNase I (Sigma) for 40 minutes. at 37° C., shaken at 180 rpm. LP cells were filtered through 65 μm mesh and centrifuged at 4° C. at 500 g for 10 minutes. The present inventors prepared single cell suspensions from mouse colon by enzymatic digestion and analyzed by polychromatic flow cytometry. […] Data were acquired on an LSRII (BD Biosciences) or FACSCalibur instrument (Becton-Dickinson) with CellQuest software, with a MacsQuant instrument (Miltenyi, Bergisch Gladbach, Germany), and analyzed using BD FACSDiva 6 or FlowJo software (version 7.6.5, or version vX.0.7 Tree Star Inc) or MacsQuant. […] After staining for cell surface antigens, intracellular NO was detected by incubation of cells for 15 min at 37° C. with 10 μM DAF-FM diacetate followed by extensive washing, according to the manufacturer's instructions (Molecular Probes). […]

enterocytes CKO mice = assay: DSS colitis (0.8% DSS) in enterocytes CKO mice, fisetin or NaNO2; details: 0.8% DSS 5 days, fisetin 1 mg IP twice, FIGS. 4L-N
Procedure: Colitis was induced on C57BL/6J.OlaaHsd mice. Mice were treated with 1% DSS for 6 days, followed by administration of either fiselin (1 mg in 30 μl DMSO IP, twice, in 3 days interval) citrulline 1% (wt/vol) solution in drinking water, the combination of both treatments or only DMSO as a control (30 μl DMSO IP, twice, in 3 days interval). […] FIGS. 4L-N—Colitis was induced on enterocytes CKO mice and compared to controls. Mice were treated with 0.8% DSS for 5 days, followed by administration with either NO donors; NaNO2 (100 mg/kg) or fisetin (1 mg in 30 μl DMSO IP, twice, in 3 days interval). […] Note that colitis severity is reduced by activating As1 in enterocytes, by citrulline and fisetin supplementation.
Colitis was induced in Vav1^Cre:As1^f/f mice and CD11c^Cre:As1^f/f with 1.5% DSS and with 0.8% DSS in the Villin^Cre:As1^f/f (wt/vol), (Dextran Sodium Sulfate, MP Biomedicals; molecular weight 36,000-50,000 Da). […]
Colonoscopy was performed on days 7 and 11 of the experiment to monitor for severity of colitis. […] The endoscopic procedure was viewed on a color monitor and digitally recorded on tape. Colitis was scored according to the Murine endoscopic index of colitis severity (MEICS), considering differences in the thickness of the bowel wall, changes in blood vessel integrity, mucosal surface, stool consistency or the presence of fibrin, scored each between 0 and 3. […]

Ass1 = assay: Immunohistochemistry staining of distal colon sections for Ass1; details: after colitis induction, fisetin treatment, FIG. 4A
enterocytes = assay: FACS analysis of colon epithelial cells (enterocytes) after colitis induction
Procedure: Colon segment was flushed with cold PBS, longitudinally cut open and rinsed to remove residual luminal contents. Tissue was cut into 3- to 5-mm pieces and incubated in HBSS medium containing EDTA 0.5 M and Hepes 10 mM at 37° C. for 20 minutes, shaken at 180 rpm, to separate epithelial fraction. Supernatant was centrifuged at 4° C. at 500 g for 10 minutes. Recovered tissue was digested in HBSS medium with 2% fetal bovine serum (FBS), 0.05% collagenase II and 0.05% DNase I (Sigma) for 40 minutes. at 37° C., shaken at 180 rpm. LP cells were filtered through 65 μm mesh and centrifuged at 4° C. at 500 g for 10 minutes. The present inventors prepared single cell suspensions from mouse colon by enzymatic digestion and analyzed by polychromatic flow cytometry. Samples were stained with conjugated antibodies or matching isotype controls according to manufacturer's instructions. Data were acquired on an LSRII (BD Biosciences) or FACSCalibur instrument (Becton-Dickinson) with CellQuest software, with a MacsQuant instrument (Miltenyi, Bergisch Gladbach, Germany), and analyzed using BD FACSDiva 6 or FlowJo software (version 7.6.5, or version vX.0.7 Tree Star Inc) or MacsQuant. Colon cells were stained for 30 min at 4° C. in flow cytometry buffer (PBS, 10% FCS and 0.02% azide). For antigens that require intracellular staining (As1, iNOS and S-nitrosocystein), cell surface staining was followed by cell fixation and permeabilization with the Cytofix/Cytoperm kit (BD Biosciences) according to the manufacturer's instructions. For staining, the present inventors used a lineage cocktail of antibodies anti-CD45-APC, Anti-CD64-PE, Anti-CD11c-PB, Anti-326-APC cy7, Anti CD31-PE cy7 (all from BioLegend). After staining for cell surface antigens, intracellular NO was detected by incubation of cells for 15 min at 37° C. with 10 μM DAF-FM diacetate followed by extensive washing, according to the manufacturer's instructions (Molecular Probes). Staining without addition of the DAF-FM probe was considered to be the baseline for gating the positive population. As1 was detected using anti-As1-ALEXA FLUOR® 488 (BD Biosciences), iNOS using anti-iNOS followed by anti-rat 488 (Jackson ImmunoResearch), and nitrosylation using anti-S-nitrosocystein (from abcam) followed by anti-mouse 488 (Jackson ImmunoResearch).

C57BL/6J.OlaaHsd mice [3] = assay: DSS-induced colitis, treatment with arginine, citrulline, NaNO2, fisetin or citrulline plus fisetin; details: day 12; fisetin, citrulline or both vs DMSO control; FIG. 4C

O=c1c(O)c(-c2ccc(O)c(O)c2)oc2cc(O)ccc12 [fisetin, 3,7, 3′, 4′-tetrahydroxyflavone]
weight loss (C57BL/6J.OlaaHsd mice [1]; 1% DSS 6 days, then fisetin 1 mg IP twice, citrulline 1% in drinking water or both vs DMSO control, FIG. 4B): significant weight loss is documented in the control group compared to the treated mice
colitis severity in all parameters (C57BL/6J.OlaaHsd mice [1]; fisetin vs control, FIG. 4A-E): improved colitis severity in all parameters
colon length (C57BL/6J.OlaaHsd mice [1]; fisetin, citrulline or both vs DMSO control, FIG. 4D): significant longer
histological score (C57BL/6J.OlaaHsd mice [1]; fisetin, citrulline or both vs DMSO control, FIG. 4E): significant reduction
As1 levels [2]: decrease
iNOS levels [2]: not in the intestinal immune cells; also recorded: decrease
effect of treatment on colitis (survival, body weight gain, colitis score) (enterocytes CKO mice): did not have an effect
effect of treatment on colitis (survival, body weight gain, colitis score) (enterocytes CKO mice; listed as Fisetin): not in the enterocytes CKO mice
Ass1 expression in distal colon sections (enterocytes) (Ass1): up regulation
Ass1 expression in distal colon sections (enterocytes) (Ass1; listed as fesitin): upregulated
NO levels in enterocytes (colon epithelial cells) (enterocytes; after colitis induction, treated vs control, FIGS. 3F-J, 4F-I): increased; also recorded: significant increase
iNOS expression in enterocytes (colon cells) (enterocytes; fisetin vs control after colitis induction, FIGS. 4J-K): increased; also recorded: significant increase
ASL levels in enterocytes (enterocytes; fisetin, FIGS. 4H-L): increase
endoscopic colitis score (C57BL/6J.OlaaHsd mice [3]): significant improvement
